Ki data for 31 compounds are collected here from patent US10544150B2, “NK-3 receptor selective antagonist compounds, pharmaceutical composition and methods for use in NK-3 receptors mediated disorders” (Ogeda SA, priority 2010, dated 2020).

This test deals with human NK-3 receptor (Homo sapiens (Human), UniProt P29371). Kind of test: 3H-SB222200 binding competition assay with human NK-3 receptor. The following applies: 3H-SB222200 displacement, CHO cell membranes expressing human NK3 receptor; read-out: Ki range. The method in brief:
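Membranes from CHO cells expressing human NK3 receptor incubated with 5 nM 3H-SB222200 and test compound in HEPES 25 mM/NaCl 0.1M/CaCl2 1 mM/MgCl2 5 mM/BSA 0.5%/saponin 10 μg/ml, pH 7.4. Bound radioligand counted after filtration; Ki calculated, reported in bands (+++ <500 nM to # >5 μM).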

The structures appear in SMILES notation. Bounds are passed on as bounds.

Chain of human NK-3 receptor (P29371 whole entry): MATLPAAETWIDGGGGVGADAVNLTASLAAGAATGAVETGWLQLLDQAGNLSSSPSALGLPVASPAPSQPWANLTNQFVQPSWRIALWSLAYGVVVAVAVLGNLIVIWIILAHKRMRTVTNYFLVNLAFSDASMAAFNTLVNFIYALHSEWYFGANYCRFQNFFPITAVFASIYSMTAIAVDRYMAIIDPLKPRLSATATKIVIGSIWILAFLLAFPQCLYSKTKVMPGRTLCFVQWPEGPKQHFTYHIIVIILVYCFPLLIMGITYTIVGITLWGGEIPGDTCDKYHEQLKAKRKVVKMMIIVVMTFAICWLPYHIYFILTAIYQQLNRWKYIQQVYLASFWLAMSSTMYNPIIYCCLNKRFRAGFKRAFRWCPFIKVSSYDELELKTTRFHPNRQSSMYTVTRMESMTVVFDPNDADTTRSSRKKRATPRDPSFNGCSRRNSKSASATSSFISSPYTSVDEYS

By Ki is commonly meant the dissociation constant of the complex between target and ligand, obtained from inhibition or displacement. Take `O=C(c1ccc(F)cc1)N1CCn2c(nnc2-c2csc(-c3ccccn3)n2)C1` [Compound 230, (4-fluorophenyl)(3-(2-(pyridin-2-yl)thiazol-4-yl)-5,6-dihydro-[1,2,4]triazolo[4,3-a]pyrazin-7(8H)-yl)methanone]: the inhibition constant Ki was 1 to 5 µM.
Turning to `O=C(C1CCC(c2ccccc2)CC1)N1CCn2c(nnc2-c2ccc3ccccc3n2)C1` (stereo not shown) [Compound 93, (4-phenylcyclohexyl)(3-(quinolin-2-yl)-5,6-dihydro-[1,2,4]triazolo[4,3-a]pyrazin-7(8H)-yl)methanone], the Ki is 1 to 5 µM.
Take `CN(C)c1ccc(-c2nc(-c3nnc4n3CCN(C(=O)c3ccc(-c5cccs5)cc3)C4)cs2)cc1` [Compound 229, (3-(2-(4-(dimethylamino)phenyl)thiazol-4-yl)-5,6-dihydro-[1,2,4]triazolo[4,3-a]pyrazin-7(8H)-yl)(4-(thiophen-2-yl)phenyl)methanone]: the Ki is below 0.5 µM.
In the case of `O=C(c1ccc(-c2cccs2)cc1)N1CCn2c(nnc2-c2cc(-c3ccccc3)n(CCO)n2)C1` [Compound 285, (3-(1-(2-hydroxyethyl)-5-phenyl-1H-pyrazol-3-yl)-5,6-dihydro-[1,2,4]triazolo[4,3-a]pyrazin-7(8H)-yl)(4-(thiophen-2-yl)phenyl)methanone] it was below 0.5 µM.
Take `O=C(c1ccccc1-c1ccccc1)N1CCn2c(nnc2-c2ccc3ccccc3n2)C1` [Compound 96, [1,1′-biphenyl]-2-yl(3-(quinolin-2-yl)-5,6-dihydro-[1,2,4]triazolo[4,3-a]pyrazin-7(8H)-yl)methanone]: the Ki was above 5 µM.
Take `O=C(c1ccc(-c2cccs2)cc1)N1CCn2c(nnc2-c2csc(-c3ccccn3)n2)C1` [Compound 224, (3-(2-(pyridin-2-yl)thiazol-4-yl)-5,6-dihydro-[1,2,4]triazolo[4,3-a]pyrazin-7(8H)-yl)(4-(thiophen-2-yl)phenyl)methanone]: the Ki was below 0.5 µM.
With `Cc1ccsc1-c1ccc(C(=O)N2CCn3c(-c4csc(-c5ccc(F)cc5)n4)nnc3C2C)cc1` (stereo not shown) [Compound 268, (3-(2-(4-fluorophenyl)thiazol-4-yl)-8-methyl-5,6-dihydro-[1,2,4]triazolo[4,3-a]pyrazin-7(8H)-yl)(4-(3-methylthiophen-2-yl)phenyl)methanone], the Ki is below 0.5 µM.
For `O=C(c1ccc(F)cc1)N1CCn2c(nnc2-c2csc(-c3ccccc3O)n2)C1` [Compound 271, (4-fluorophenyl)(3-(2-(2-hydroxyphenyl)thiazol-4-yl)-5,6-dihydro-[1,2,4]triazolo[4,3-a]pyrazin-7(8H)-yl)methanone], the inhibition constant (Ki) is below 0.5 µM.
`CC1c2nnc(-c3csc(-c4ccccc4)n3)n2CCN1C(=O)c1ccc(-c2cccs2)cc1` (stereo not shown) [Compound 62, (8-methyl-3-(2-phenylthiazol-4-yl)-5,6-dihydro-[1,2,4]triazolo[4,3-a]pyrazin-7(8H)-yl)(4-(thiophen-2-yl)phenyl)methanone]: the Ki was below 0.5 µM.
In the case of `Cc1cccc(-c2nnc3n2CCN(C(=O)c2ccc(-c4cccs4)cc2)C3C)n1` (stereo not shown) [Compound 287, (8-methyl-3-(6-methylpyridin-2-yl)-5,6-dihydro-[1,2,4]triazolo[4,3-a]pyrazin-7(8H)-yl)(4-(thiophen-2-yl)phenyl)methanone] it was below 0.5 µM; in that of `O=C(c1ccc(-c2cccs2)cc1)N1CCn2c(nnc2-c2cc(-c3ccccc3)n[nH]2)C1` [Compound 267, (3-(3-phenyl-1H-pyrazol-5-yl)-5,6-dihydro-[1,2,4]triazolo[4,3-a]pyrazin-7(8H)-yl)(4-(thiophen-2-yl)phenyl)methanone], below 0.5 µM; in that of `O=C(c1ccc(F)cc1)N1CCn2c(nnc2-c2nc(-c3ccc(F)cc3)no2)C1` [Compound 175, (4-fluorophenyl)(3-(3-(4-fluorophenyl)-1,2,4-oxadiazol-5-yl)-5,6-dihydro-[1,2,4]triazolo[4,3-a]pyrazin-7(8H)-yl)methanone], below 0.5 µM.
In the case of `O=C(c1ccc(-c2cccs2)cc1)N1CCn2c(nnc2-c2nc(-c3ccc(F)cc3F)no2)C1` [Compound 177, (3-(3-(2,4-difluorophenyl)-1,2,4-oxadiazol-5-yl)-5,6-dihydro-[1,2,4]triazolo[4,3-a]pyrazin-7(8H)-yl)(4-(thiophen-2-yl)phenyl)methanone] it was below 0.5 µM; in that of `O=C(c1ccc(F)cc1)N1CCn2c(nnc2-c2csc(-c3ccncc3)n2)C1` [Compound 218, (4-fluorophenyl)(3-(2-(pyridin-4-yl)thiazol-4-yl)-5,6-dihydro-[1,2,4]triazolo[4,3-a]pyrazin-7(8H)-yl)methanone], 1 to 5 µM.
Turning to `CC1CN(c2nc(-c3nnc4n3CCN(C(=O)c3ccc(-c5cccs5)cc3)C4)cs2)CC(C)O1` (stereo not shown) [Compound 265, (3-(2-(2,6-dimethylmorpholino)thiazol-4-yl)-5,6-dihydro-[1,2,4]triazolo[4,3-a]pyrazin-7(8H)-yl)(4-(thiophen-2-yl)phenyl)methanone], the Ki is below 0.5 µM.
In the case of `O=C(c1ccc(F)cc1)N1CCn2c(nnc2-c2csc(-c3cccc(F)c3)n2)C1` [Compound 206, (4-fluorophenyl)(3-(2-(3-fluorophenyl)thiazol-4-yl)-5,6-dihydro-[1,2,4]triazolo[4,3-a]pyrazin-7(8H)-yl)methanone], the inhibition constant Ki was 1 to 5 µM.
Consider `O=C(c1ccc(-c2cccs2)cc1)N1CCn2c(nnc2-c2csc(N3CCCC3)n2)C1` [Compound 248, (3-(2-(pyrrolidin-1-yl)thiazol-4-yl)-5,6-dihydro-[1,2,4]triazolo[4,3-a]pyrazin-7(8H)-yl)(4-(thiophen-2-yl)phenyl)methanone], for which the Ki is below 0.5 µM.
For `NCCOc1ccccc1-c1nc(-c2nnc3n2CCN(C(=O)c2ccc(-c4cccs4)cc2)C3)cs1` [Compound 282, (3-(2-(2-(2-aminoethoxy)phenyl)thiazol-4-yl)-5,6-dihydro-[1,2,4]triazolo[4,3-a]pyrazin-7(8H)-yl)(4-(thiophen-2-yl)phenyl)methanone], the Ki lay in the range of 0.5 to 1 µM.
With `CC1c2nnc(-c3ccc4ccccc4n3)n2CCN1C(=O)c1ccc(F)cc1` (stereo not shown) [Compound 61, (4-fluorophenyl)(8-methyl-3-(quinolin-2-yl)-5,6-dihydro-[1,2,4]triazolo[4,3-a]pyrazin-7(8H)-yl)methanone], the Ki was below 0.5 µM.
Take `O=C(c1ccc(F)cc1)N1CCn2c(nnc2-c2ccc3ccccc3n2)C1` [Compound 7, (4-fluorophenyl)(3-(quinolin-2-yl)-5,6-dihydro-[1,2,4]triazolo[4,3-a]pyrazin-7(8H)-yl)methanone]: the Ki is below 0.5 µM.
`O=C(c1ccc(F)cc1)N1CCn2c(nnc2-c2csc(-c3cccc(C(F)(F)F)c3)n2)C1` [Compound 28, (4-fluorophenyl)(3-(2-(3-(trifluoromethyl)phenyl)thiazol-4-yl)-5,6-dihydro-[1,2,4]triazolo[4,3-a]pyrazin-7(8H)-yl)methanone]: the Ki is below 0.5 µM.
Regarding `CC1c2nnc(-c3csc(-c4ccccc4)n3)n2CCN1C(=O)c1ccc(F)cc1` (stereo not shown) [Compound 166, (4-fluorophenyl)(8-methyl-3-(2-phenylthiazol-4-yl)-5,6-dihydro-[1,2,4]triazolo[4,3-a]pyrazin-7(8H)-yl)methanone], the inhibition constant (Ki) was below 0.5 µM.
Take `CC(C)Cc1nc(-c2nnc3n2CCN(C(=O)c2ccc(-c4cccs4)cc2)C3)cs1` [Compound 256, (3-(2-isobutylthiazol-4-yl)-5,6-dihydro-[1,2,4]triazolo[4,3-a]pyrazin-7(8H)-yl)(4-(thiophen-2-yl)phenyl)methanone]: the Ki is below 0.5 µM.
For the compound `O=C(c1ccc(F)cc1)N1CCn2c(nnc2-c2csc(-c3ccc(N4CCOCC4)cc3)n2)C1` [Compound 240, (4-fluorophenyl)(3-(2-(4-morpholinophenyl)thiazol-4-yl)-5,6-dihydro-[1,2,4]triazolo[4,3-a]pyrazin-7(8H)-yl)methanone], the Ki lay in the range of 0.5 to 1 µM.
In the case of `C[C@@H]1c2nnc(-c3csc(-c4ccccc4)n3)n2CCN1C(=O)c1ccc(F)cc1` [Compound 45, (R)-(4-fluorophenyl)(8-methyl-3-(2-phenylthiazol-4-yl)-5,6-dihydro-[1,2,4]triazolo[4,3-a]pyrazin-7(8H)-yl)methanone] it was below 0.5 µM.
The result for `Cc1sccc1-c1ccc(C(=O)N2CCn3c(-c4csc(-c5ccc(F)cc5)n4)nnc3[C@@H]2C)cc1` [Compound 233, (S)-(3-(2-(4-fluorophenyl)thiazol-4-yl)-8-methyl-5,6-dihydro-[1,2,4]triazolo[4,3-a]pyrazin-7(8H)-yl)(4-(2-methylthiophen-3-yl)phenyl)methanone] reads below 0.5 µM.
In the case of `Cc1cccc(-c2nnc3n2CCN(C(=O)c2ccc(F)cc2)C3)n1` [Compound 11, (4-fluorophenyl)(3-(6-methylpyridin-2-yl)-5,6-dihydro-[1,2,4]triazolo[4,3-a]pyrazin-7(8H)-yl)methanone] it was below 0.5 µM; in that of `O=C(c1ccc(F)cc1)N1CCn2c(nnc2-c2ccc3cccc(Cl)c3n2)C1` [Compound 23, (3-(8-chloroquinolin-2-yl)-5,6-dihydro-[1,2,4]triazolo[4,3-a]pyrazin-7(8H)-yl)(4-fluorophenyl)methanone], 0.5 to 1 µM; in that of `CC1c2nnc(-c3csc(-c4ccc(F)cc4)n3)n2CCN1C(=O)c1ccc(-c2ccccc2)cc1` (stereo not shown) [Compound 76, [1,1′-biphenyl]-4-yl(3-(2-(4-fluorophenyl)thiazol-4-yl)-8-methyl-5,6-dihydro-[1,2,4]triazolo[4,3-a]pyrazin-7(8H)-yl)methanone], below 0.5 µM.
For the compound `COCC1CCCCN1c1nc(-c2nnc3n2CCN(C(=O)c2ccc(F)cc2)C3)cs1` (stereo not shown) [Compound 277, (4-fluorophenyl)(3-(2-(2-(methoxymethyl)piperidin-1-yl)thiazol-4-yl)-5,6-dihydro-[1,2,4]triazolo[4,3-a]pyrazin-7(8H)-yl)methanone], the Ki is above 5 µM.
As to `O=C(c1cc(-c2ccc(Cl)cc2)n[nH]1)N1CCn2c(nnc2-c2ccccn2)C1` [Compound 3, (3-(4-chlorophenyl)-1H-pyrazol-5-yl)(3-(pyridin-2-yl)-5,6-dihydro-[1,2,4]triazolo[4,3-a]pyrazin-7(8H)-yl)methanone], the Ki was 1 to 5 µM.
